Reference: PubChem BioAssay (NCI)
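In this assay, cells in 96-well plates receive the compound at five concentrations for 48 hours. Endpoints are linearly interpolated between the surrounding concentrations. Abbreviation: GI50, concentration required for 50% inhibition of growth. At the TGI there is no net growth.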

Columns and labels:
Test in all cases: growth of human tumour cells (NCI), 48 h
786-0 renal = tested on: 786-0 renal
A498 renal = tested on: A498 renal
A549 NSCLC = tested on: A549 NSCLC
ACHN renal = tested on: ACHN renal
BT-549 breast = tested on: BT-549 breast
CAKI-1 renal = tested on: CAKI-1 renal
CCRF-CEM leukemia = tested on: CCRF-CEM leukemia
COLO 205 colon = tested on: COLO 205 colon
DU-145 prostate = tested on: DU-145 prostate
EKVX NSCLC = tested on: EKVX NSCLC
HCC-2998 colon = tested on: HCC-2998 colon
HCT-116 colon = tested on: HCT-116 colon
HCT-15 colon = tested on: HCT-15 colon
HL-60(TB) leukemia = tested on: HL-60(TB) leukemia
HOP-62 NSCLC = tested on: HOP-62 NSCLC
HOP-92 NSCLC = tested on: HOP-92 NSCLC
HS 578T breast = tested on: HS 578T breast
HT29 colon = tested on: HT29 colon
IGROV1 ovarian = tested on: IGROV1 ovarian
K-562 leukemia = tested on: K-562 leukemia
KM12 colon = tested on: KM12 colon
LOX IMVI melanoma = tested on: LOX IMVI melanoma
M14 melanoma = tested on: M14 melanoma
MALME-3M melanoma = tested on: MALME-3M melanoma
MCF7 breast = tested on: MCF7 breast
MDA-MB-231 breast = tested on: MDA-MB-231 breast
MDA-MB-435 = tested on: MDA-MB-435
MDA-MB-468 breast = tested on: MDA-MB-468 breast
MOLT-4 leukemia = tested on: MOLT-4 leukemia
NCI-H226 lung = tested on: NCI-H226 lung
NCI-H23 lung = tested on: NCI-H23 lung
NCI-H460 lung = tested on: NCI-H460 lung
NCI-H522 lung = tested on: NCI-H522 lung
OVCAR-3 ovarian = tested on: OVCAR-3 ovarian
OVCAR-4 ovarian = tested on: OVCAR-4 ovarian
OVCAR-5 ovarian = tested on: OVCAR-5 ovarian
OVCAR-8 ovarian = tested on: OVCAR-8 ovarian
PC-3 prostate = tested on: PC-3 prostate
RPMI-8226 leukemia = tested on: RPMI-8226 leukemia
RXF 393 renal = tested on: RXF 393 renal
SF-268 CNS = tested on: SF-268 CNS
SF-295 CNS = tested on: SF-295 CNS
SF-539 CNS = tested on: SF-539 CNS
SK-MEL-28 melanoma = tested on: SK-MEL-28 melanoma
SK-MEL-5 melanoma = tested on: SK-MEL-5 melanoma
SK-OV-3 ovarian = tested on: SK-OV-3 ovarian
SN12C renal = tested on: SN12C renal
SNB-19 CNS = tested on: SNB-19 CNS
SNB-75 CNS = tested on: SNB-75 CNS
SR leukemia = tested on: SR leukemia
SW-620 colon = tested on: SW-620 colon
T-47D breast = tested on: T-47D breast
TK-10 renal = tested on: TK-10 renal
U251 CNS = tested on: U251 CNS
UACC-257 melanoma = tested on: UACC-257 melanoma
UACC-62 melanoma = tested on: UACC-62 melanoma
UO-31 renal = tested on: UO-31 renal

Cc1sc(C(NC(=O)OCCn2c([N+](=O)[O-])cnc2C)C(F)(F)Cl)nc1-c1ccc(OC(F)(F)F)cc1 (configuration not stated)
GI50 (786-0 renal): 7.35 µM | TGI (786-0 renal): 20.7 µM | GI50 (A498 renal): 4.98 µM | TGI (A498 renal): 20.6 µM | GI50 (A549 NSCLC): 4.57 µM | TGI (A549 NSCLC): 20.4 µM | GI50 (ACHN renal): 3.04 µM | TGI (ACHN renal): 11.3 µM | GI50 (BT-549 breast): 5.57 µM | TGI (BT-549 breast): 18.6 µM | GI50 (CAKI-1 renal): 2.83 µM | TGI (CAKI-1 renal): 11.8 µM | GI50 (CCRF-CEM leukemia): 2.32 µM | TGI (CCRF-CEM leukemia): 16.4 µM | GI50 (COLO 205 colon): 5.8 µM | TGI (COLO 205 colon): 21.3 µM | GI50 (DU-145 prostate): 4.97 µM | TGI (DU-145 prostate): 17.9 µM | GI50 (EKVX NSCLC): 2.8 µM | TGI (EKVX NSCLC): 12.6 µM | GI50 (HCC-2998 colon): 4.8 µM | TGI (HCC-2998 colon): 17 µM | GI50 (HCT-116 colon): 4.78 µM | TGI (HCT-116 colon): 20.1 µM | GI50 (HCT-15 colon): 3.19 µM | TGI (HCT-15 colon): 12.1 µM | GI50 (HL-60(TB) leukemia): 4.06 µM | TGI (HL-60(TB) leukemia): 24.1 µM | GI50 (HOP-62 NSCLC): 8.7 µM | TGI (HOP-62 NSCLC): 23.9 µM | GI50 (HOP-92 NSCLC): 2.86 µM | TGI (HOP-92 NSCLC): 11.6 µM | GI50 (HS 578T breast): 2.55 µM | TGI (HS 578T breast): 33 µM | GI50 (HT29 colon): 3.56 µM | TGI (HT29 colon): 13 µM | GI50 (IGROV1 ovarian): 6.15 µM | TGI (IGROV1 ovarian): 19.5 µM | GI50 (K-562 leukemia): 3.62 µM | TGI (K-562 leukemia): > 100 µM | GI50 (KM12 colon): 3.63 µM | TGI (KM12 colon): 14.7 µM | GI50 (LOX IMVI melanoma): 3.42 µM | TGI (LOX IMVI melanoma): 13.6 µM | GI50 (M14 melanoma): 4.56 µM | TGI (M14 melanoma): 18.2 µM | GI50 (MALME-3M melanoma): 6.79 µM | TGI (MALME-3M melanoma): 21.8 µM | GI50 (MCF7 breast): 2.68 µM | TGI (MCF7 breast): 10.3 µM | GI50 (MDA-MB-231 breast): 3.37 µM | TGI (MDA-MB-231 breast): 12.3 µM | GI50 (MDA-MB-435): 3.87 µM | TGI (MDA-MB-435): 15.5 µM | GI50 (MDA-MB-468 breast): 2.37 µM | TGI (MDA-MB-468 breast): 8.73 µM | GI50 (MOLT-4 leukemia): 3.74 µM | TGI (MOLT-4 leukemia): 16.5 µM | GI50 (NCI-H226 lung): 3.78 µM | TGI (NCI-H226 lung): 16.7 µM | GI50 (NCI-H23 lung): 7.46 µM | TGI (NCI-H23 lung): 22.7 µM | GI50 (NCI-H460 lung): 3.31 µM | TGI (NCI-H460 lung): > 100 µM | GI50 (NCI-H522 lung): 3.82 µM | TGI (NCI-H522 lung): 15.3 µM | GI50 (OVCAR-3 ovarian): 3.68 µM | TGI (OVCAR-3 ovarian): 13.3 µM | GI50 (OVCAR-4 ovarian): 3.85 µM | TGI (OVCAR-4 ovarian): 15.7 µM | GI50 (OVCAR-5 ovarian): 4.28 µM | TGI (OVCAR-5 ovarian): 17.6 µM | GI50 (OVCAR-8 ovarian): 7.09 µM | TGI (OVCAR-8 ovarian): 22.6 µM | GI50 (PC-3 prostate): 2.65 µM | TGI (PC-3 prostate): 14.8 µM | GI50 (RPMI-8226 leukemia): 3.41 µM | TGI (RPMI-8226 leukemia): 54.6 µM | GI50 (RXF 393 renal): 2.65 µM | TGI (RXF 393 renal): 12.6 µM | GI50 (SF-268 CNS): 3.6 µM | TGI (SF-268 CNS): 16.3 µM | GI50 (SF-295 CNS): 3.26 µM | TGI (SF-295 CNS): 13.7 µM | GI50 (SF-539 CNS): 9.15 µM | TGI (SF-539 CNS): 21.4 µM | GI50 (SK-MEL-28 melanoma): 4.84 µM | TGI (SK-MEL-28 melanoma): 17.1 µM | GI50 (SK-MEL-5 melanoma): 3.89 µM | TGI (SK-MEL-5 melanoma): 14.7 µM | GI50 (SK-OV-3 ovarian): 12 µM | TGI (SK-OV-3 ovarian): 26.2 µM | GI50 (SN12C renal): 4.47 µM | TGI (SN12C renal): 15.9 µM | GI50 (SNB-19 CNS): 4.93 µM | TGI (SNB-19 CNS): 17.4 µM | GI50 (SNB-75 CNS): 1.43 µM | TGI (SNB-75 CNS): 14.2 µM | GI50 (SR leukemia): 3.58 µM | TGI (SR leukemia): 30.6 µM | GI50 (SW-620 colon): 7.32 µM | TGI (SW-620 colon): > 100 µM | GI50 (T-47D breast): 3.11 µM | TGI (T-47D breast): 12.8 µM | GI50 (TK-10 renal): 3.96 µM | TGI (TK-10 renal): 15.8 µM | GI50 (U251 CNS): 5.38 µM | TGI (U251 CNS): 19.2 µM | GI50 (UACC-257 melanoma): 7.75 µM | TGI (UACC-257 melanoma): 22.5 µM | GI50 (UACC-62 melanoma): 3.53 µM | TGI (UACC-62 melanoma): 15.4 µM | GI50 (UO-31 renal): 2.77 µM | TGI (UO-31 renal): 13.5 µM

C=CC(=O)N1CCN(c2nc(OC[C@@H]3CCCN3C)nc3c(F)c(-c4nc(N)cc(C)c4C(F)(F)F)c(Cl)cc23)[C@@H](C)C1
GI50 (MDA-MB-468 breast): 1.3 µM | TGI (MDA-MB-468 breast): 2.7 µM

O=C(Nc1cccc2[nH]c(C(F)(F)F)nc12)c1ccc(Br)cc1F
GI50 (MDA-MB-468 breast): 2.4 µM | TGI (MDA-MB-468 breast): 7.05 µM

CCn1cnc(C[C@H](NC(=O)[C@@H](NC(=O)Nc2cc(C(F)(F)F)cc(C(F)(F)F)c2)C(C)(C)C)C(=O)OC)c1
GI50 (MDA-MB-468 breast): 5.18 µM | TGI (MDA-MB-468 breast): > 10 µM

COc1cc2c(cc1OCCCN1CCN(CCCOc3cc4c(cc3OC)C(=O)N3C[C@H](F)C[C@H]3C=N4)CC1)N=C[C@@H]1C[C@@H](F)CN1C2=O
GI50 (MDA-MB-468 breast): < 0.01 µM | TGI (MDA-MB-468 breast): 0.0397 µM
